The target of assay [1] is T1, Lysine-specific demethylase 2A (Homo sapiens, UniProt Q9Y2K7).
T1 sequence (Q9Y2K7 whole entry): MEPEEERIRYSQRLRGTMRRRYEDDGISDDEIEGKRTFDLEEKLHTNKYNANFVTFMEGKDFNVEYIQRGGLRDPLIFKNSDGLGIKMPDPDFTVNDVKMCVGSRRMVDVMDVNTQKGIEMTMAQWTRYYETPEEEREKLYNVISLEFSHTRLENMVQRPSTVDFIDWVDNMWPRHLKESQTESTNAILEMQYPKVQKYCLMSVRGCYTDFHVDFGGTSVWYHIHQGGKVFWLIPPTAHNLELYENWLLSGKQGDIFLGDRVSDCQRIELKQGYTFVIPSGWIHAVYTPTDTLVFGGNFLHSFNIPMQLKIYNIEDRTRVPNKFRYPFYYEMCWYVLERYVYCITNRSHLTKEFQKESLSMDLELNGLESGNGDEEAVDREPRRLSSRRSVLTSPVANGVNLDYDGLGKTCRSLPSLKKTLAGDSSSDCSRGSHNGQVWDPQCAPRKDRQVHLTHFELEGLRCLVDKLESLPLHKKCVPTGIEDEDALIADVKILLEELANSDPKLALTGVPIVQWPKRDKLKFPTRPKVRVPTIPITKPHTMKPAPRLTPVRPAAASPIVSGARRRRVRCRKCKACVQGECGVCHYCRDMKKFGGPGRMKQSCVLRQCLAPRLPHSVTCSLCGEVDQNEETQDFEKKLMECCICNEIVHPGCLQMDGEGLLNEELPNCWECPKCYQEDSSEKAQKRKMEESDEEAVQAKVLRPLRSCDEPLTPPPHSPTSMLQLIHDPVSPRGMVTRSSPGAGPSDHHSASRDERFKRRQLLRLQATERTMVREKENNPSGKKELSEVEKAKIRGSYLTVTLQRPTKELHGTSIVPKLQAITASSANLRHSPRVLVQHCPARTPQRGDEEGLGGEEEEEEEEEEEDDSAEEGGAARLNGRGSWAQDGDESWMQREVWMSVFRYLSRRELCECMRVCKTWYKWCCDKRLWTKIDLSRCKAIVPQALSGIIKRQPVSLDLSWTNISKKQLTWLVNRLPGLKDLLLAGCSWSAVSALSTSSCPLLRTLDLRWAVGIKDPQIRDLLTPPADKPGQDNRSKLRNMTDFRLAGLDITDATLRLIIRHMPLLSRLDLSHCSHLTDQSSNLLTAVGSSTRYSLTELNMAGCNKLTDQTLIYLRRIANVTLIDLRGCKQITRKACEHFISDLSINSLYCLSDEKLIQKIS
Briefly: Binding affinity to recombinant 6xHis-tagged JHDM1A (unknown origin) expressed in Escherichia coli BL21 by fluorescence polarization assay.

The target in assay [2] is T1, Lysine-specific demethylase 2A. Briefly: Inhibition of recombinant 6xHis-tagged JHDM1A (unknown origin) expressed in Escherichia coli BL21 using SAPATGGVK(Me2)KPHRYRPGTVAL as substrate incubated for 15 mins prior to substrate addition measured after 50 mins by rapid fire mass spectrophotometric analysis.
The target of assay [3] is T2, Lysine-specific demethylase 6B (Homo sapiens, UniProt O15054). As to the kind of experiment: Inhibition of recombinant 6xHis-tagged JMJD3 (unknown origin) expressed in Escherichia coli BL21.
Assay [4] deals with T1, Lysine-specific demethylase 2A. As to the kind of experiment: Binding affinity to recombinant 6xHis-tagged JHDM1A (unknown origin) expressed in Escherichia coli BL21 by fluorescence polarization assay in presence of Co2+.
The target in assay [5] is T2, Lysine-specific demethylase 6B. As to the kind of experiment: Binding affinity to recombinant 6xHis-tagged JMJD3 (unknown origin) expressed in Escherichia coli BL21 up to 10 uM by fluorescence polarization assay. (Polarisation of emitted light reports the rotation of a fluorescent probe.)
Assay [6] deals with T1, Lysine-specific demethylase 2A. As to the kind of experiment: Binding affinity to recombinant 6xHis-tagged JHDM1A (unknown origin) expressed in Escherichia coli BL21 by fluorescence polarization assay in presence of Ni2+.
Assay [7] addresses T3, Lysine-specific demethylase 4A (Homo sapiens) (UniProt O75164).
T3 sequence (whole entry): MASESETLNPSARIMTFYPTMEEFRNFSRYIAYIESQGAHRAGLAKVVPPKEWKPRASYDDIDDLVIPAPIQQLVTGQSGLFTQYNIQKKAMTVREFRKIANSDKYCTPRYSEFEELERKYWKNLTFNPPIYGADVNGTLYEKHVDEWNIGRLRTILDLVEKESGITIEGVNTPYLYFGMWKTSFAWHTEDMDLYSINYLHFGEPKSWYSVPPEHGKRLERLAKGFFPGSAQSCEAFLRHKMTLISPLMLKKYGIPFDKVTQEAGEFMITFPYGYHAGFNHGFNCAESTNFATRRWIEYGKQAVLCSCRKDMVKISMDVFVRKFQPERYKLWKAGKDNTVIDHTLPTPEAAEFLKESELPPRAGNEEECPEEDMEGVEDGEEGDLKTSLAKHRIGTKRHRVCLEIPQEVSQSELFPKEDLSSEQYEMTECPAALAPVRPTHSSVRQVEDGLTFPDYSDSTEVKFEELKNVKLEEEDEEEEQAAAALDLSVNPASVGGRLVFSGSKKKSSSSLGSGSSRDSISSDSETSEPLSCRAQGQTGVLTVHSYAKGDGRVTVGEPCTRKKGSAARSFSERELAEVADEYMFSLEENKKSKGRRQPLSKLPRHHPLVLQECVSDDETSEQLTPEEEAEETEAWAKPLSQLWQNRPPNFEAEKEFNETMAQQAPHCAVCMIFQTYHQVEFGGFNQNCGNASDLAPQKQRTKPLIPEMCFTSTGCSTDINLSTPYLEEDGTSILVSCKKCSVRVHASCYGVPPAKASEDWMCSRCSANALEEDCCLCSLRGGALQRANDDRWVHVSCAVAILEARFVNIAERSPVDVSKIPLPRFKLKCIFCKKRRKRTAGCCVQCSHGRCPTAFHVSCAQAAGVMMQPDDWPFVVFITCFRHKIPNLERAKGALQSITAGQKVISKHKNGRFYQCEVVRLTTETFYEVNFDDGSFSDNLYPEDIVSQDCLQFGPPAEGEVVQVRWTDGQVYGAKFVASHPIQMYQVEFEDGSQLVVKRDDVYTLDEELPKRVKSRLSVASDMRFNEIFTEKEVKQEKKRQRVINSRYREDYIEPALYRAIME
As to the kind of experiment: Binding affinity to JMJD2A (unknown origin) up to 10 uM by fluorescence polarization assay.

Assay [8] deals with T1, Lysine-specific demethylase 2A. As to the kind of experiment: Binding affinity to recombinant 6xHis-tagged JHDM1A (unknown origin) expressed in Escherichia coli BL21 by fluorescence polarization assay in presence of Fe2+ and sodium ascorbate.
Assay [9] has as its target T4, Lysine-specific demethylase 4A (Homo sapiens, UniProt O75164).
T4 sequence (O75164 whole entry): T3 sequence (whole entry)
As to the kind of experiment: Inhibition of JMJD2A (unknown origin).

Our source for the Kd, IC50 and Activity values is ChEMBL document CHEMBL2390894, “Quantitative analysis of histone demethylase probes using fluorescence polarization” (J Med Chem, 2013).

Activity calls are given as the source filed them. The rule behind the calls is not given here.

The Kd is the equilibrium constant for the complex coming apart. Usually IC50 stands for the concentration that inhibits the measured activity by half.

T2 sequence (O15054 whole entry): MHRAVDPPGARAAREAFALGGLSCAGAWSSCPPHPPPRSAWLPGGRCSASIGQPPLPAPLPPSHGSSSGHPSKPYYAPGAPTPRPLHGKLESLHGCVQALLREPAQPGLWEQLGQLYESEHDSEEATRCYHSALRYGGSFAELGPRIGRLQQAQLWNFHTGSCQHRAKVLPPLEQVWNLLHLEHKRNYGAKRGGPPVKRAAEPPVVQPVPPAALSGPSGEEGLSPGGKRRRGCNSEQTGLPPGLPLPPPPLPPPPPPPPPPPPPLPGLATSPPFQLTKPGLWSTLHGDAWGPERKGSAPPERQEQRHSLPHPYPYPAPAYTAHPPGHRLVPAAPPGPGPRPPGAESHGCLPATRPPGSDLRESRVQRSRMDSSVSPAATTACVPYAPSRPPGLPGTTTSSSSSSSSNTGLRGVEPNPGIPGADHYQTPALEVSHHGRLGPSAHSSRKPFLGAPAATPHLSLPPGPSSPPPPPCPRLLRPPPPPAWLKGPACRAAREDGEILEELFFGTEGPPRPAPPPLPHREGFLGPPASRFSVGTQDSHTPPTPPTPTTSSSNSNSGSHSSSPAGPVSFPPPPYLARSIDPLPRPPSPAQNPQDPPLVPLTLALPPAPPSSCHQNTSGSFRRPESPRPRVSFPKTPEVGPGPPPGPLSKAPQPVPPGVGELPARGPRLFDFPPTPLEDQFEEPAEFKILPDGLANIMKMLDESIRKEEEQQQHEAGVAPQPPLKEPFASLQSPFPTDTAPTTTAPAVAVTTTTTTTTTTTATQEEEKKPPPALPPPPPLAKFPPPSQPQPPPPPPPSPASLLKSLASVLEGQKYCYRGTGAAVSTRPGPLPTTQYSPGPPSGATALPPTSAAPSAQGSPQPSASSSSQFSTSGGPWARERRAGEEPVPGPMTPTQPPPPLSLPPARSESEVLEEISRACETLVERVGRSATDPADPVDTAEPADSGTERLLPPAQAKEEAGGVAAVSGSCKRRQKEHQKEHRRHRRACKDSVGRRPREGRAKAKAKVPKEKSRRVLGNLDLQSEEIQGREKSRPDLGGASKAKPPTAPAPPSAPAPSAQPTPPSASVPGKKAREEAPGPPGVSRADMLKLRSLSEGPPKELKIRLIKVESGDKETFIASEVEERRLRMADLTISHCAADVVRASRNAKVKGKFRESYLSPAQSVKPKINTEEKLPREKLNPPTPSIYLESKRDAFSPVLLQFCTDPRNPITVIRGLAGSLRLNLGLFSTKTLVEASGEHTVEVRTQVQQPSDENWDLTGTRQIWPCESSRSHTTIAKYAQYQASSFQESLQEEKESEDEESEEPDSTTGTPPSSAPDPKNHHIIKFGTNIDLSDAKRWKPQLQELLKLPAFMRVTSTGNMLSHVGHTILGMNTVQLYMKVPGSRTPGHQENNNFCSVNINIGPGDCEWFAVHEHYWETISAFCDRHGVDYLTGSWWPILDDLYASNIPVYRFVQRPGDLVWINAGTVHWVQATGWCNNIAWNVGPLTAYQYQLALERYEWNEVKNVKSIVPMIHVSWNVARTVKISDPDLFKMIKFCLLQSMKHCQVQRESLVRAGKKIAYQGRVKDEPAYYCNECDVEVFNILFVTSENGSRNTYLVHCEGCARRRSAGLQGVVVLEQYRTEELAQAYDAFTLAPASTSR

On to `NCc1ccc(CN(CCCCN(O)C(=O)/C=C/C(=O)O)C(=S)Nc2ccc(-c3c4ccc(=O)cc-4oc4cc(O)ccc34)c(C(=O)O)c2)cc1`, for which the Kd is 0.019 µM in assay [1], 0.022 µM in [4], 0.0093 µM in [6] and 0.0086 µM in [8]. The IC50 in assay [2] was 0.9 µM; in [3] it was 9.5 µM; in [9], 23.5 µM. Moreover, the outcome in [5] and in assay [7] was Active.
Consider `O=C(O)/C=C/C(=O)N(O)CCCCNCc1ccc(COC(=O)Nc2cccc3ccccc23)cc1`, for which the results for the IC50 in [3] and in assay [9] were 3.1 µM and 3.3 µM, respectively.
In the case of `NCc1ccc(CNCCCCN(O)C(=O)/C=C/C(=O)O)cc1`, the IC50 in [2] was found to be 0.42 µM; in assay [3], 7.3 µM; in assay [9], 2.4 µM.
